These results are taken from patent US8574563B2 (Bristol-Myers Squibb Company, priority 2006, dated 2013).

One experiment concerns HCV 1b-377-neo replicon cells. Briefly: HCV replicon assay, HCV 1b-377-neo replicon cells (1b FRET). The following applies: HCV 1b-377-neo replicon cells; HCV 1b genotype; read-out: EC50 range against HCV 1b (Table 2, Range). The format is cell-based, Hepatitis C virus genotype 1b. Summed up: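 Compounds were tested in genotype 1b subgenomic replicon cells carrying a neomycin marker, alongside a matched replicon line with an NS5A Y2065H substitution that confers resistance to a reference NS5A inhibitor.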
(In general: Replicon systems follow genome replication, usually without infectious particles.)
In general, EC50 refers to the concentration giving half of the maximal effect. For `COC(=O)NC(C(=O)N1CCCC1c1nc(-c2ccc(-c3ccc(-c4cnc(C5CCCN5C(=O)CN5CCCC5)[nH]4)cc3)cc2)c[nH]1)c1ccccc1` [Example 58, methyl ((1R)-2-oxo-1-phenyl-2-((2S)-2-(5-(4′-(2-((2S)-1-(1-pyrrolidinylacetyl)-2-pyrrolidinyl)-1H-imidazol-5-yl)-4-biphenylyl)-1H-imidazol-2-yl)-1-pyrrolidinyl)ethyl)carbamate], the EC50 fell in the range of 0.001 to 0.999 nM. Same read-out and setting: the figure for `COC(=O)N[C@@H](C(=O)N1CCC[C@H]1c1ncc(-c2ccc(-c3ccc(-c4cnc([C@@H]5CCCN5C(=O)c5ccccn5)[nH]4)cc3)cc2)[nH]1)c1ccccc1` [Example 67, methyl ((1R)-2-oxo-1-phenyl-2-((2S)-2-(5-(4′-(2-((2S)-1-(2-pyridinylcarbonyl)-2-pyrrolidinyl)-1H-imidazol-5-yl)-4-biphenylyl)-1H-imidazol-2-yl)-1-pyrrolidinyl)ethyl)carabamate] is 0.001 to 0.999 nM. The same measure, in the same setting: next, `COC(=O)N[C@@H](C(=O)N1CCC[C@H]1c1ncc(-c2ccc(-c3ccc(-c4cnc([C@@H]5CCCN5C(=O)c5ccncc5)[nH]4)cc3)cc2)[nH]1)c1ccccc1` [Example 69, methyl ((1R)-2-((2S)-2-(5-(4′-(2-((2S)-1-isonicotinoyl-2-pyrrolidinyl)-1H-imidazol-5-yl)-4-biphenylyl)-1H-imidaozl-2-yl)-1-pyrrolidinyl)-2-oxo-1-phenylethyl)carbamate]: 0.001 to 0.999 nM; `COC(=O)N[C@@H](C(=O)N1CCC[C@H]1c1ncc(-c2ccc(-c3ccc(-c4cnc([C@@H]5CCCN5C(=O)c5cnco5)[nH]4)cc3)cc2)[nH]1)c1ccccc1` [Example 72, methyl ((1R)-2-((2S)-2-(5-(4′-(2-((2S)-1-(1,3-oxazol-5-ylcarbonyl)-2-pyrrolidinyl)-1H-imidazol-5-yl)-4-biphenylyl)-1H-imidazol-2-yl)-1-pyrrolidinyl)-2-oxo-1-phenylethy)carbamate]: 1 to 99 nM.

Still in this experiment, the particulars now being: Hepatitis C virus, HCV 1b-377-neo replicon cells; HCV 1b genotype; read-out: EC50 range against HCV 1b (Table 2, Range).
For `COC(=O)N[C@@H](C(=O)N1CCC[C@H]1c1ncc(-c2ccc(-c3ccc(-c4cnc([C@@H]5CCCN5C(=O)CN5CCN(C)CC5)[nH]4)cc3)cc2)[nH]1)c1ccccc1` [Example 57, methyl ((1R)-2-((2S)-2-(5-(4′-(2-((2S)-1-((4-methyl-1-piperazinyl)acetyl)-2-pyrrolidinyl)-1H-imidazol-5-yl)-4-biphenylyl)-1H-imidazol-2-yl)-1-pyrrolidinyl)-2-oxo-1-phenylethyl)carbamate], the concentration for a half-maximal effect (EC50) was 0.001 to 0.999 nM. Turning to `COC(=O)N[C@@H](C(=O)N1CCC[C@H]1c1ncc(-c2ccc(-c3ccc(-c4cnc([C@@H]5CCCN5C(=O)[C@@H]5CCCO5)[nH]4)cc3)cc2)[nH]1)c1ccccc1` [Example 59, methyl ((1R)-2-oxo-1-phenyl-2-((2S)-2-(5-(4′-(2-((2S)-1-((2S)-tetrahydro-2-furanylcarbonyl)-2-pyrrolidinyl)-1H-imidazol-5-yl)-4-biphenylyl)-1H-imidazol-2-yl)-1-pyrrolidinyl)ethyl)carbamate], the EC50 was 0.001 to 0.999 nM. In the case of `COC(=O)N[C@@H](C(=O)N1CCC[C@H]1c1ncc(-c2ccc(-c3ccc(-c4cnc([C@@H]5CCCN5C(=O)C5(O)CC5)[nH]4)cc3)cc2)[nH]1)c1ccccc1` [Example 60, methyl ((1R)-2-((2S)-2-(5-(4′-(2-((2S)-1-((1-hydroxycyclopropyl)carbonyl)-2-pyrrolidinyl)-1H-imidazol-5-yl)-4-biphenylyl)-1H-imidazol-2-yl)-1-pyrrolidinyl)-2-oxo-1-phenylethyl)carbamate], the 50% effective concentration (EC50) lay within 0.001 to 0.999 nM.

As for `COC(=O)N[C@@H](C(=O)N1CCC[C@H]1c1ncc(-c2ccc(-c3ccc(-c4cnc([C@@H]5CCCN5C(=O)Cc5cnc[nH]5)[nH]4)cc3)cc2)[nH]1)c1ccccc1` [Example 61, methyl ((1R)-2-((2S)-2-(5-(4′-(2-((2S)-1-(1H-imidazol-5-ylacetyl)-2-pyrrolidinyl)-1H-imidazol-5-yl)-4-biphenylyl)-1H-imidazol-2-yl)-1-pyrrolidinyl)-2-oxo-1-phenylethyl)carbamate], the EC50 lay within 0.001 to 0.999 nM. Same read-out and setting: the figure for `COC(=O)N[C@@H](C(=O)N1CCC[C@H]1c1ncc(-c2ccc(-c3ccc(-c4cnc([C@@H]5CCCN5C(=O)Cc5cn(C)cn5)[nH]4)cc3)cc2)[nH]1)c1ccccc1` [Example 62, methyl ((1R)-2-((2S)-2-(5-(4′-(2-((2S)-1-((1-methyl-1H-imidazol-4-yl)acetyl)-2-pyrrolidinyl)-1H-imidazol-5-yl)-4-biphenylyl)-1H-imidazol-2-yl)-1-pyrrolidinyl)-2-oxo-1-phenylethyl)carbamate] is 0.001 to 0.999 nM; for `COC(=O)N[C@@H](C(=O)N1CCC[C@H]1c1ncc(-c2ccc(-c3ccc(-c4cnc([C@@H]5CCCN5C(=O)c5ncc[nH]5)[nH]4)cc3)cc2)[nH]1)c1ccccc1` [Example 63, methyl ((1R)-2-((2S)-2-(5-(4′-(2-((2S)-1-(1H-imidazol-2-ylcarbonyl)-2-pyrrolidinyl)-1H-imidazol-5-yl)-4-biphenylyl)-1H-imidazol-2-yl)-1-pyrrolidinyl)-2-oxo-1-phenylethyl)carbamate] it is 0.001 to 0.999 nM. Still for that read-out and setting: the figure for `COC(=O)N[C@@H](C(=O)N1CCC[C@H]1c1ncc(-c2ccc(-c3ccc(-c4cnc([C@@H]5CCCN5C(=O)C(c5ccccc5)N5CCC(O)CC5)[nH]4)cc3)cc2)[nH]1)c1ccccc1` (stereo partly drawn) [Example 64, methyl ((1R)-2-((2S)-2-(5-(4′-(2-((2S)-1-((4-hydroxy-1-piperidinyl)(phenyl)acetyl)-2-pyrrolidinyl)-1H-imidazol-5-yl)-4-biphenylyl)-1H-imidazol-2-yl)-1-pyrrolidinyl)-2-oxo-1-phenylethyl)carbamate] is 0.001 to 0.999 nM. For `COC(=O)N[C@@H](C(=O)N1CCC[C@H]1c1ncc(-c2ccc(-c3ccc(-c4cnc([C@@H]5CCCN5C(=O)Cc5nnn[nH]5)[nH]4)cc3)cc2)[nH]1)c1ccccc1` [Example 65, methyl ((1R)-2-oxo-1-phenyl-2-((2S)-2-(5-(4′-(2-((2S)-1-(1H-tetrazol-5-ylacetyl)-2-pyrrolidinyl)-1H-imidazol-5-yl)-4-biphenylyl)-1H-imidazol-2-yl)-1-pyrrolidinyl)ethyl)carbamate], the EC50 was in the range of 1 to 99 nM. Regarding `COC(=O)N[C@@H](C(=O)N1CCC[C@H]1c1ncc(-c2ccc(-c3ccc(-c4cnc([C@@H]5CCCN5C(=O)c5cccnc5)[nH]4)cc3)cc2)[nH]1)c1ccccc1` [Example 68, methyl ((1R)-2-oxo-1-phenyl-2-((2S)-2-(5-(4′-(2-((2S)-1-(3-pyridinylcarbonyl)-2-pyrrolidinyl)-1H-imidazol-5-yl)-4-biphenylyl)-1H-imidazol-2-yl)-1-pyrrolidinyl)ethyl)carbamate], the 50% effective concentration (EC50) was in the range of 0.001 to 0.999 nM. `COC(=O)N[C@@H](C(=O)N1CCC[C@H]1c1ncc(-c2ccc(-c3ccc(-c4cnc([C@@H]5CCCN5C(=O)[C@@H]5C[C@@H](F)CN5C)[nH]4)cc3)cc2)[nH]1)c1ccccc1` [Example 70, methyl ((1R)-2-((2S)-2-(5-(4′-(2-((2S)-1-((4R)-4-fluoro-1-methyl-L-prolyl)-2-pyrrolidinyl)-1H-imidazol-5-yl)-4-biphenylyl)-1H-imidazol-2-yl)-1-pyrrolidinyl)-2-oxo-1-phenylethyl)carbamate]: the 50% effective concentration (EC50) is 1 to 99 nM. On the same count and under the same terms, the figure for `COC(=O)N[C@@H](C(=O)N1CCC[C@H]1c1ncc(-c2ccc(-c3ccc(-c4cnc([C@@H]5CCCN5C(=O)c5ncco5)[nH]4)cc3)cc2)[nH]1)c1ccccc1` [Example 71, methyl ((1R)-2-((2S)-2-(5-(4′-(2-((2S)-1-(1,3-oxazol-2-ylcarbonyl)-2-pyrrolidinyl)-1H-imidazol-5-yl)-4-biphenylyl)-1H-imidazol-2-yl)-1-pyrrolidinyl)-2-oxo-1-phenylethyl)carbamate] is 0.001 to 0.999 nM. Same read-out and setting: the figure for `COC(=O)N[C@@H](C(=O)N1CCC[C@H]1c1ncc(-c2ccc(-c3ccc(-c4cnc([C@@H]5CCCN5C(=O)C(=O)N(C)C)[nH]4)cc3)cc2)[nH]1)c1ccccc1` [Example 73, methyl ((1R)-2-((2S)-2-(5-(4′-(2-((2S)-1-((dimethylamino)(oxo)acetyl)-2-pyrrolidinyl)-1H-imidazol-5-yl)-4-biphenylyl)-1H-imidazol-2-yl)-1-pyrrolidinyl)-2-oxo-1-phenylethyl)carbamate] is 0.001 to 0.999 nM. For `COC(=O)N[C@@H](C(=O)N1CCC[C@H]1c1ncc(-c2ccc(-c3ccc(-c4cnc([C@@H]5CCCN5C(=O)C5CCOC5)[nH]4)cc3)cc2)[nH]1)c1ccccc1` (stereo partly drawn) [Example 74, methyl ((1R)-2-oxo-1-phenyl-2-((2S)-2-(5-(4′-(2-((2S)-1-(tetrahydro-3-furanylcarbonyl)-2-pyrrolidinyl)-1H-imidazol-5-yl)-4-biphenylyl)-1H-imidazol-2-yl)-1-pyrrolidinyl)ethyl)carbamate], the EC50 is 0.001 to 0.999 nM.

On to `COC(=O)N[C@@H](C)C(=O)N1CCC[C@H]1c1ncc(-c2ccc(-c3ccc(-c4cnc([C@@H]5CCCN5C(=O)[C@H](NC(=O)OC)c5ccccc5)[nH]4)cc3)cc2)[nH]1` [Example 75, methyl ((1R)-2-((2S)-2-(5-(4′-(2-((2S)-1-(N-(methoxycarbonyl)-L-alanyl)-2-pyrrolidinyl)-1H-imidazol-5-yl)-4-biphenylyl)-1H-imidazol-2-yl)-1-pyrrolidinyl)-2-oxo-1-phenylethyl)carbamate], for which the EC50 fell in the range of 0.001 to 0.999 nM. In the case of `COC(=O)N[C@@H](C(=O)N1CCC[C@H]1c1ncc(-c2ccc(-c3ccc(-c4cnc([C@@H]5CCCN5C(=O)[C@H](C)N(C)C)[nH]4)cc3)cc2)[nH]1)c1ccccc1` [Example 76, methyl ((1R)-2-((2S)-2-(5-(4′-(2-((2S)-1-(N,N-dimethyl-L-alanyl)-2-pyrrolidinyl)-1H-imidazol-5-yl)-4-biphenylyl)-1H-imidazol-2-yl)-1-pyrrolidinyl)-2-oxo-1-phenylethyl)carbamate], the EC50 is 0.001 to 0.999 nM.
